# Entries after “also recorded” stand apart in the source; their conditions may differ.
# Columns and labels:
# ZF-responsive promoter [1] = assay: Dual-drug regulated IL4 and CD19-CAR expression in CD4+ primary human T cells; format: cell-based
# From the text: (see e.g., FIG. 14A-14B).
# ZF-responsive promoter [2] = assay: Inducible repression of a fluorescent protein using ERT2 and SMASh domains, Jurkat; format: cell-based, human; conditions: 6 days; KRAB-, HP1a-, EED-ZF-ERT2-SMASh lines
# Procedure: Inducible synthetic transcriptional repression of a fluorescent protein in human cell lines using […] domains: Three Jurkat T cell lines were tested: (1) KRAB-[…] (3) […]. […] Absence of a SMASh-responsive small molecule (GZV) in the negative control led to significant “leaky” repression in the absence of 4OHT (see e.g., FIG. 18).
# ZF-responsive promoter [3] = assay: Inducible synthetic transcriptional repression of a fluorescent protein, HEK293; format: cell-based, human; conditions: compared to untreated
# Procedure: Tunable gene silencing can also be achieved using small molecule inducible synTFs. Inducible synTFs were engineered that were capable of repressing gene expression. The responsive promoter was modified to constitutively express a fluorescent output. The p65 activation domain was replaced with a KRAB repression domain (human-derived silencer), and the same ZF-drug pairs were utilized as the synTF activators. Inducibility profiles were determined for each of the three inducible synTF repressors in HEK cell lines, and there was strong silencing of reporter expression over time in drug-treated lines relative to untreated cell lines (see e.g., FIG. 11A-11B, 12A-12C).
# ZF-responsive promoter [4] = assay: Tunable activation of a fluorescent protein by co-administered 4OHT and GZV, ERT2 and SMASh domains, Jurkat; format: cell-based, human; conditions: co-administration of varying 4OHT and GZV for 4 days
# Procedure: Tunable synthetic transcriptional activation of a fluorescent protein in human cell lines using ERT2 and SMASh domains: Two Jurkat T cell lines were tested: (1) ZF-p65-ERT2-SMASh (C-terminal SMASh) and (2) SMASh-ZF-p65-ERT2 (N-terminal SMASh).
# ZF-responsive promoter [5] = assay: 4OHT-inducible transcriptional activation of a fluorescent protein using ERT2 domain, Jurkat; format: cell-based, human
# From the text: ERT2 nuclear translocation domain, which is responsive to a small molecule (4-hydroxytamoxifen=4OHT), can be used to regulate a synTF as described herein (see e.g., Indra et al. Nucleic Acids Res (1999)). The human estrogen receptor (ER) contains a ligand responsive domain that, when fused to other protein domains, can yield ligand-dependent control over activity. The domain naturally associates with cytoplasmic factors in the cell in the absence of cognate ligands, effectively sequestering itself in the cytoplasm. Binding of cognate ligands, such as estrogen or other steroid hormone derivatives, cause a conformational change to the receptor that allow dissociation from the cytoplasmic complexes and expose a nuclear localization signal, permitting translocation into the nucleus.
# Subsequently, the administration of 4OHT can allow conditional nuclear translocation of the synTF, allowing synTF functionality in the cellular nucleus (see e.g., FIG. 4).
# Output fluorescence was measured as a function of several different 4OHT treatment concentrations as indicated (dose response; see e.g., FIG. 8A).
# ZF-responsive promoter [6] = assay: Small molecule inducible synTF activation of fluorescent reporter in HEK293 and Jurkat cell lines; format: cell-based, human; conditions: both HEK293 and Jurkat cell lines; compared to untreated
# From the text: Output fluorescence as a function of several different small molecule (e.g., ABA, 4OHT, or grazoprevir) treatment concentrations is also indicated here.
# Inducible synTFs were first characterized using GFP (or another detectable marker such as mCherry) as the reporter. The whole system was introduced into Jurkat T cells via lentiviral transduction with multiplicity of infection of 25 to ensure high efficiency, quantifying viral copy number (VCN) with qPCR. To characterize the inducible synTF controllers, cells at 5×10^4 cells each in 96-well plates were inoculated with lentivirus, and eight different drug concentrations were added spanning three orders of magnitude (e.g., GZV 0-10 μM, 4OHT 0-1 μM), and GFP expression levels can be quantified with flow cytometry (see e.g., FIG. 10A-10D). Gene expression levels can be normalized to VCN. From these dose-responses, the dynamic range and threshold of activation can be defined. Since the single vector design can lack a selection marker, transduction efficiency was assumed to be equal to the percentage of GFP positive cells after induction by 4OHT or GZV.
# Tunable gene activation was achieved using small molecule inducible synTFs. Inducibility profiles were determined for each of the three inducible synTF activators, in both HEK293 and Jurkat cell lines. The reporter expression was evaluated across time and varying drug concentrations. Day 4 represented the highest levels of expression that were assayed, indicating strong inducible expression in drug-treated lines relative to untreated cell lines (see e.g., FIG. 10A-10D).
# ZF-responsive promoter [7] = assay: Activation and tunable deactivation of a fluorescent protein using ERT2 and SMASh domains, Jurkat; format: cell-based, human
# Procedure: Inducible synthetic transcriptional activation and tunable deactivation of a fluorescent protein in human cell lines using ERT2 and SMASh domains: Three Jurkat T cell lines were tested: (1) ZF-p65-ERT2 (no SMASh, see e.g., FIG. 4); (2) ZF-p65-ERT2-SMASh (C-terminal SMASh); and (3) SMASh-ZF-p65-ERT2 (N-terminal SMASh) (see e.g., FIG. 16A). […] Absence of a SMASh-responsive small molecule (grazoprevir) for 12 days led to equivalent, slow deactivation of the reporter to baseline levels. […] This rapid deactivation of the reporter was compared to the condition lacking the SMASh domain, which led to equivalent slow deactivation as in the “absence of grazoprevir” condition (see e.g., FIG. 16B).
# ZF-responsive promoter [8] = assay: ABA-inducible transcriptional activation of a fluorescent protein using ABI/PYL domains, Jurkat; format: cell-based, human
# From the text: ABI/PYL induced proximity domains that are responsive to a small molecule (abscisic acid=ABA) can be used to regulate a synTF as described herein (see e.g., Liang et al. Sci Signal, 2011). The ABA-insensitive 1 (ABI1) and PYR1-like (PYL) domains originating form Arabidopsis thaliana have complementary surfaces that can conditionally interact when coordinated by the small molecule abscisic acid (ABA). ABA is a plant hormone that is naturally present at low levels within the human diet, and is subsequently presumed to be a safe small molecule for human administration.
# Subsequently, the administration of ABA can allow conditional dimerization between the ABI1 and PYL subunits, allowing the ZF and effector domains to remain locally coupled and retaining synTF functionality (see e.g., FIG. 3).
# Output fluorescence was measured as a function of several different ABA treatment concentrations as indicated (dose response; see e.g., FIG. 7A).
# ZF-responsive promoter [9] = assay: Inducible activation of CD19-CAR in CD4+ primary human T cells; format: cell-based
# From the text: (§1) Output fluorescence as a function of several different grazoprevir treatment concentrations is also indicated here. […] Cytokine production as a function of several different grazoprevir treatment concentrations is also indicated here (see e.g., FIG. 13A-13D).
# (§2) Inducible synTFs can regulate […] expression in primary cells. The grazoprevir-inducible synTF was used to control expression of a CD19-CAR in primary CD4+ cells. […] Such results highlight that the ability to reliably control expression of outputs from therapeutic, thus controlling their functionalities in increasingly complex settings (see e.g., FIG. 13A-13D).
# ZF-responsive promoter [10] = assay: Grazoprevir-inducible transcriptional activation of a fluorescent protein using NS3, Jurkat; format: cell-based, human
# From the text: Non-structural protein 3 (NS3) domain can be used for small molecule regulated control over synTF activity (see e.g., Lin et al. PNAS (2008)). The non-structural protein 3 (NS3) is a serine protease originating from the hepatitis C virus and is naturally capable of self-excision from expressed proteins.
# Subsequently, the administration of one of these small molecules—e.g. grazoprevir—can prevent self-excision of NS3 from the fusion protein, allowing the ZF and effector domains to remain locally coupled and retaining synTF functionality.
# In the presence of a small molecule, the NS3 protease activity is inhibited and the fusion protein complex is stabilized, permitting the transcription factor to regulate expression of an output gene from a responsive promoter (see e.g., FIG. 5A-5C).
# Output fluorescence was measured as a function of several different grazoprevir treatment concentrations as indicated (dose response) (see e.g., FIG. 9A).
# ZF-responsive promoter [11] = assay: Grazoprevir-inducible transcriptional repression of a fluorescent protein, HEK293 and Jurkat; format: cell-based, human; conditions: compared to untreated
# ZF-responsive promoter [12] = assay: Inducible activation of IL10 in Jurkat T cell lines, double or single lentiviral vector; format: cell-based, human; conditions: 1 uM GZV for 2 days
# From the text: This inducible activation can be achieved through the delivery of separate lentiviral cassettes for NS3-synTF expression and IL10 production (“double lentiviral vector”), or through the delivery of a single lentiviral cassette expressing the NS3-synTF as well as regulating IL10 production (see e.g., FIG. 15A-15C).
# A single lentiviral vector was engineered that was capable of expressing a grazoprevir-inducible synTF that would in turn regulate expression of IL-10. The size of this entire insert including expression elements was 3.5 kB, which is minimal and […] the total payload packaging limits of certain vectors.
# [13] = system: CD19 antigen-presenting target cells; assay: Co-culture of induced CD19-CAR primary T cells with CD19 antigen-presenting target cells, cytokine production; format: cell-based, human
# From the text: as §1, §2
# [14] = commonly taken at 100 mg/day for up to 12 weeks; cited from earlier work
# [15] = compared to untreated cell line
structure (smiles),measurement,setting,value
"CC/C(=C(\c1ccc(O)cc1)c1ccc(OCCN(C)C)cc1)c1ccccc1 [4OHT, 4-hydroxytamoxifen]",IL4 expression,ZF-responsive promoter [1]; ERT2-synTF,expression and secretion of IL4 cytokine
same,"fluorescent protein on administration of 4OHT, repressor synTFs",ZF-responsive promoter [2],temporal repression of a fluorescent protein
same,"fluorescent protein output, synTF with repressor effector domain",ZF-responsive promoter [3],temporal silencing of a fluorescent protein output
same,level of fluorescent protein activation,ZF-responsive promoter [4],maximal activation
same,fluorescent protein output on administration of small molecule,ZF-responsive promoter [5]; [15],temporal activation of a fluorescent protein output
same,fluorescent protein output on removal of small molecule,ZF-responsive promoter [5]; removal after four days,temporal de-activation of a fluorescent protein output
same,fluorescent protein output on administration of small molecule,ZF-responsive promoter [6],temporal activation of a fluorescent protein output
same,fluorescent protein on administration of 4OHT,"ZF-responsive promoter [7]; 4 days, all three Jurkat lines",temporal activation of a fluorescent protein
same,fluorescent protein on removal of 4OHT,"ZF-responsive promoter [7]; removal from days 6-16, all cell lines",temporal deactivation of the fluorescent protein
"CC1=CC(=O)CC(C)(C)[C@@]1(O)/C=C/C(C)=C\C(=O)O [ABA, abscisic acid]","fluorescent protein output, synTF with repressor effector domain",ZF-responsive promoter [3],temporal silencing of a fluorescent protein output
same,fluorescent protein output on administration of small molecule,ZF-responsive promoter [8]; [15],temporal activation of a fluorescent protein output
same,fluorescent protein output on removal of small molecule,ZF-responsive promoter [8]; removal after four days,temporal de-activation of a fluorescent protein output
same,fluorescent protein output on administration of small molecule,ZF-responsive promoter [6],temporal activation of a fluorescent protein output
C=C[C@@H]1C[C@]1(NC(=O)[C@@H]1C[C@@H]2CN1C(=O)[C@H](C(C)(C)C)NC(=O)O[C@@H]1C[C@H]1CCCCCc1nc3ccc(OC)cc3nc1O2)C(=O)NS(=O)(=O)C1CC1 [grazoprevir],CD19-CAR expression,"ZF-responsive promoter [9]; CD4+ primary human T cells, several grazoprevir concentrations over time",temporal activation of a fluorescently-tagged chimeric antigen receptor (CD19-CAR) protein; also recorded: dose-dependent expression of synTF
same,CD19-CAR fold induction,"ZF-responsive promoter [9]; day 3, highest concentration",strong fold induction
same,fluorescent protein output on administration of small molecule,ZF-responsive promoter [10]; [15],temporal activation of a fluorescent protein output
same,fluorescent protein output on removal of small molecule,ZF-responsive promoter [10]; removal after four days,temporal de-activation of a fluorescent protein output
same,CD19-CAR expression in dual-drug context,ZF-responsive promoter [1]; orthogonal ZF-responsive promoter,regulated activation of a fluorescently-tagged chimeric antigen receptor (CD19-CAR) protein
same,"fluorescent protein output, synTF with repressor effector domain",ZF-responsive promoter [11],temporal silencing of a fluorescent protein output
same,"fluorescent protein output, synTF with repressor effector domain",ZF-responsive promoter [3],temporal silencing of a fluorescent protein output
same,level of fluorescent protein activation,ZF-responsive promoter [4],little-to-no activation
same,IL10 expression,ZF-responsive promoter [12],temporal activation of a cytokine (IL10); also recorded: strong induced expression of IL-10
same,"T-cell activation, cytokine production (IFNgamma, IL-2)",[13],"T-cell activation, measured by enhanced production of cytokines; also recorded: dose-dependent production of IFNgamma and IL-2 cytokines"
same,fluorescent protein output on administration of small molecule,ZF-responsive promoter [6],temporal activation of a fluorescent protein output
same,reporter deactivation with SMASh-responsive small molecule,ZF-responsive promoter [7]; grazoprevir for 12 days after 4OHT removal,fast deactivation of the reporter to the baseline levels
same,safety profile,[14],exceptional safety profile
